We go through three molecules from EP2057188B1 (priority 2006, dated 2008).

The test is classed as in vivo, NIH/Swiss mice. Particulars: 80 nmol/Kg; AUC240.
Procedure: Gavage (1.5g/kg) was given at t=0. Sample was taken at t=30 min.
Take `CC[C@H](C)[C@H](NC(=O)[C@H](CO)NC(=O)[C@H](Cc1ccc(O)cc1)NC(=O)[C@H](CC(=O)O)NC(=O)[C@H](CO)NC(=O)[C@@H](NC(=O)[C@H](Cc1ccccc1)NC(=O)[C@@H](NC(=O)CNC(=O)[C@H](CCC(=O)O)NC(=O)[C@@H](C)NC(=O)[C@@H](N)Cc1ccc(O)cc1)[C@@H](C)O)[C@@H](C)CC)C(=O)N[C@@H](C)C(=O)N[C@@H](CCSC)C(=O)N[C@@H](CC(=O)O)C(=O)N[C@@H](CCCCN)C(=O)N[C@H](C(=O)N[C@@H](Cc1c[nH]cn1)C(=O)N[C@@H](CCC(N)=O)C(=O)N[C@@H](CCC(N)=O)C(=O)N[C@@H](CC(=O)O)C(=O)N[C@@H](Cc1ccccc1)C(=O)N[C@H](C(=O)N[C@@H](CC(N)=O)C(=O)N[C@@H](Cc1c[nH]c2ccccc12)C(=O)N[C@@H](CC(C)C)C(=O)N[C@@H](CC(C)C)C(=O)N[C@@H](C)C(=O)N[C@@H](CCC(N)=O)C(=O)N[C@@H](CCCCN)C(=O)N1CCC[C@H]1C(=O)N[C@@H](CO)C(=O)N[C@@H](CO)C(=O)NCC(=O)N[C@@H](C)C(=O)N1CCC[C@H]1C(=O)NCC(=O)N1CCC[C@H]1C(=O)N[C@@H](CO)C(N)=O)C(C)C)[C@@H](C)CC` [0601 GIP49 52]: the “Basal Glucose Lowering at 80 nmol/Kg” value is reported as -1, AUC2 40%.

Consider `CC[C@H](C)[C@H](NC(=O)[C@H](CO)NC(=O)[C@H](Cc1ccc(O)cc1)NC(=O)[C@H](CC(=O)O)NC(=O)[C@H](CO)NC(=O)[C@@H](NC(=O)[C@H](Cc1ccccc1)NC(=O)[C@@H](NC(=O)CNC(=O)[C@H](CCC(=O)O)NC(=O)[C@@H](C)NC(=O)[C@@H](N)Cc1ccc(O)cc1)[C@@H](C)O)[C@@H](C)CC)C(=O)N[C@@H](C)C(=O)N[C@@H](CCSC)C(=O)N[C@@H](CC(=O)O)C(=O)N[C@@H](CCCCN)C(=O)N[C@H](C(=O)N[C@@H](Cc1c[nH]cn1)C(=O)N[C@@H](CCC(N)=O)C(=O)N[C@@H](CCC(N)=O)C(=O)N[C@@H](CC(=O)O)C(=O)N[C@@H](Cc1ccccc1)C(=O)N[C@H](C(=O)N[C@@H](CC(N)=O)C(=O)N[C@@H](Cc1c[nH]c2ccccc12)C(=O)N[C@@H](CC(C)C)C(=O)N[C@@H](CC(C)C)C(=O)N[C@@H](C)C(=O)N[C@@H](CCC(N)=O)C(=O)N[C@@H](CCCCN)C(=O)N[C@H](C(=O)N[C@@H](CO)C(=O)N1CCC[C@H]1C(=O)N[C@@H](CCCNC(=N)N)C(=O)N1CCC[C@H]1C(=O)N1CCC[C@H]1C(=O)N[C@@H](CO)C(N)=O)[C@@H](C)O)C(C)C)[C@@H](C)CC` [Compound 0601GIP4236], for which the “Basal Glucose Lowering at 80 nmol/Kg” value is reported as -12%,.

`CC[C@H](C)[C@H](NC(=O)[C@H](CO)NC(=O)[C@H](Cc1ccc(O)cc1)NC(=O)[C@H](CC(=O)O)NC(=O)[C@H](CO)NC(=O)[C@@H](NC(=O)[C@H](Cc1ccccc1)NC(=O)[C@@H](NC(=O)CNC(=O)[C@H](CCC(=O)O)NC(=O)[C@@H](C)NC(=O)[C@@H](N)Cc1ccc(O)cc1)[C@@H](C)O)[C@@H](C)CC)C(=O)N[C@@H](C)C(=O)N[C@@H](CCSC)C(=O)N[C@@H](CC(=O)O)C(=O)N[C@@H](CCCCN)C(=O)N[C@H](C(=O)N[C@@H](Cc1c[nH]cn1)C(=O)N[C@@H](CCC(N)=O)C(=O)N[C@@H](CCC(N)=O)C(=O)N[C@@H](CC(=O)O)C(=O)N[C@@H](Cc1ccccc1)C(=O)N[C@H](C(=O)N[C@@H](CCC(N)=O)C(=O)N[C@@H](Cc1c[nH]c2ccccc12)C(=O)N[C@@H](CC(C)C)C(=O)N[C@@H](CC(C)C)C(=O)N[C@@H](C)C(=O)N[C@@H](CCC(N)=O)C(=O)N[C@@H](CCCCN)C(=O)N1CCC[C@H]1C(=O)N[C@@H](CO)C(=O)N[C@@H](CO)C(=O)NCC(=O)N[C@@H](C)C(=O)N1CCC[C@H]1C(=O)N1CCC[C@H]1C(=O)N1CCC[C@H]1C(=O)N[C@@H](CO)C(N)=O)C(C)C)[C@@H](C)CC` [0601 GIP48 46]: the “Basal Glucose Lowering at 80 nmol/Kg” value is -6%, AUC2 40.
